# Patent US20240398962A1, “DENDRIMER-GLUTAMINE ANTAGONIST CONJUGATES AND METHODS OF USE THEREOF” (The Johns Hopkins University, priority 2021, published 2024)
# System: not listed separately
# Test: Liver homogenate stability (compound disappearance by LC-MS/MS)
# Type: in vitro ADME
# Conditions: 20 μm, 37° C.
# Procedure: Liver or EL4 lymphoma tumor tissues were washed and diluted 10-fold in 0.1 M potassium phosphate buffer and homogenized using a probe sonicator. To evaluate the stability of the analogs 1 mL aliquots were made of each matrix and the analogs were spiked to a final assay concentration of 20 μm. Spiked samples were incubated in an orbital shaker at 37° C. for 1 h, following which reactions were quenched in triplicate with three volumes of acetonitrile containing the internal standard (IS; losartan: 0.5 μm). The samples were vortex-mixed for 30 s and centrifuged at 10 000 g for 10 min at 4° C. Fifty microliters of the supernatant was diluted with 50 μL of water and transferred to a 250 μL polypropylene vial sealed with a Teflon cap. Compound disappearance was monitored over time using liquid chromatography tandem mass spectrometry (LC-MS/MS).
row,Liver homogenate stability (% remaining at 1 h incubation) [%],SMILES
1,79,"CC(C)C[C@H](NC(=O)CCOCCOCCN)C(=O)N[C@@H](CCC(=O)C=[N+]=[N-])C(=O)OC(C)(C)C [III, t-Butyl (2S,5S)-15-amino-2-(4-diazo-3-oxobutyl)-5-isobutyl-4,7-dioxo-10,13-dioxa-3,6-diazapentadecanoate]"
2,17,"CC(C)C[C@H](NC(=O)COCCN)C(=O)N[C@@H](CCC(=O)C=[N+]=[N-])C(=O)OC(C)C [V, Isopropyl (S)-2-((S)-2-(2-(2-aminoethoxy)acetamido)-4-methylpentanamido)-6-diazo-5-oxohexanoate]"
3,0,"CC(C)C[C@H](NC(=O)CCOCCOCCN)C(=O)N[C@@H](CCC(=O)C=[N+]=[N-])C(=O)OC(C)C [IV, Isopropyl (2S,5S)-15-amino-2-(4-diazo-3-oxobutyl)-5-isobutyl-4,7-dioxo-10,13-dioxa-3,6-diazapentadecanoate]"
4,94,"CC(C)C[C@H](NC(=O)COCCN)C(=O)N[C@@H](CCC(=O)C=[N+]=[N-])C(=O)OC(C)(C)C [II, t-Butyl (S)-2-((S)-2-(2-(2-aminoethoxy)acetamido)-4-methylpentanamido)-6-diazo-5-oxohexanoate]"
5,12,"CC(C)C[C@H](NC(=O)OCC1c2ccccc2-c2ccccc21)C(=O)N[C@@H](CCC(=O)C=[N+]=[N-])C(=O)N[C@@H](Cc1ccccc1)C(=O)NCCOCCOCCOCCOCCC(=O)O [VI, (5S,8S,11S)-11-Benzyl-8-(4-diazo-3-oxobutyl)-1-(9H-fluoren-9-yl)-5-isobutyl-3,6,9,12-tetraoxo-2,16,19,22,25-pentaoxa-4,7,10,13-tetraazaoctacosane-28-oic acid]"
6,0,"CC(C)C[C@H](NC(=O)OCC1c2ccccc2-c2ccccc21)C(=O)N[C@@H](CCC(=O)C=[N+]=[N-])C(=O)N[C@@H](Cc1ccccc1)C(=O)NCCOCCOCCOCCC(=O)O [VII, (5S,8S,11S)-11-benzyl-8-(4-diazo-3-oxobutyl)-1-(9H-fluoren-9-yl)-5-isobutyl-3,6,9,12-tetraoxo-2,16,19,22-tetraoxa-4,7,10,13-tetraazapentacosan-25-oic acid]"

row,SMILES,Liver homogenate stability (% remaining at 1 h incubation) [%]
1,"CC(C)OC(=O)[C@H](CCC(=O)C=[N+]=[N-])NP(=O)(OCCCCN)Oc1ccccc1 (stereo partly drawn) [I, Isopropyl (2S)-2-(((4-aminobutoxy)(phenoxy)phosphoryl)amino)-6-diazo-5-oxohexanoate]",32

# System: glutaminase
# Test: not given
# Conditions: cited from earlier work
row,SMILES,Inhibition of glutamine-utilizing enzymes including glutaminase
1,"[N-]=[N+]=CC(=O)CC[C@H](N)C(=O)O [DON, 6-diazo-5-oxo-L-norleucine]",low micromolar levels

# System: not listed separately
# Test: Stability of the prepared product on storage
# Type: physicochemical
# Conditions: should be stored at −80° C.
# Procedure: Piperidine (1.00 mL, 10.3 mmol, 20 equiv.) was added and the reaction mixture was stirred at rt for 2 h. The solvent was evaporated and the residue was chromatographed on silica gel (CHCl3/MeOH 1:1+2% Et3N) to afford the desired product I (165 mg, 73%) as a yellowish oil. The prepared product I is very unstable and should be stored at −80° C.
row,SMILES,Stability of prepared product
1,"CC(C)OC(=O)[C@H](CCC(=O)C=[N+]=[N-])NP(=O)(OCCCCN)Oc1ccccc1 (stereo partly drawn) [I, Isopropyl (2S)-2-(((4-aminobutoxy)(phenoxy)phosphoryl)amino)-6-diazo-5-oxohexanoate]",very unstable
